The values below come from the Kinase Knowledgebase extract (Sharma et al. 2016).

This experiment addresses MAPK14;MAPK11;MAPK12 (human) (UniProt Q16539). Briefly: Inhibition of p38 Kinase Activity.
As usually defined, the IC50 is the concentration needed to halve the response being measured. Higher therefore signals a need for much substance. On to `CNCCN(C)c1nc(NCC(C)c2ccccc2)nc(Nc2cccc(Br)c2)n1` (stereo not drawn), for which the IC50 was below 10000 nM.
Consider `Cc1ccc(C(N)=O)cc1Nc1nc(N[C@H]2CCN(C(C)c3ccncc3)C2)nc(N(C)CC(C)C)n1` (stereo partly drawn), for which the IC50 was below 1000 nM.
As for `CN(CC1CCC2CC1C2(C)C)c1nc(Nc2ccc3ncsc3c2)nc(N2CCN(S(C)(=O)=O)CC2)n1` (stereo not drawn), the figure is below 10000 nM; as for `CCC(C)CNc1nc(Nc2cc(C(N)=O)ccc2C)nc(N[C@H]2CCNC2)n1` (stereo partly drawn), below 1000 nM; as for `CNCCCN(C)c1nc(NC[C@@H]2CC[C@H]3C[C@@H]2C3(C)C)nc(Nc2ccc3ncsc3c2)n1`, below 10000 nM.
As for `CC(CNc1nc(Nc2ccc3ncsc3c2)nc(N2CCN(C(=O)c3ccc(-c4ccccc4)cc3)CC2)n1)c1ccccc1` (stereo not drawn), the figure is below 10000 nM; as for `COCCN1CCC(Nc2nc(Nc3cc(C(N)=O)ccc3C)nc(N(C)CC(C)C)n2)C1` (stereo not drawn), below 1000 nM.
In turn, `COC[C@H]1C[C@@H](Nc2nc(Nc3cc(C(N)=O)ccc3C)nc(N(C)CC(C)(C)C)n2)CN1` showed an IC50 below 1000 nM.
As for `CN(CC1CC[C@H]2C[C@@H]1C2(C)C)c1nc(Nc2ccc3ncsc3c2)nc(N2CCN(C(=O)CCC(=O)O)CC2)n1` (stereo partly drawn), the figure is below 10000 nM; as for `Cc1ccc(C(N)=O)cc1Nc1nc(N[C@H]2CCCC[C@H]2NC(=O)CC(C)C)nc(N(C)CC(C)C)n1`, below 1000 nM; as for `Cc1ccccc1NC(=O)c1ccc(C)c(Nc2nc(N[C@H]3CCNC3)nc(N(C)CC(C)(C)C)n2)c1`, below 1000 nM.
As for `Cc1ccc(C(N)=O)cc1Nc1nc(NCCCn2ccnc2)nc(NC2CCCC2)n1`, the figure is below 1000 nM.
As for `Cc1ccc(C(N)=O)cc1Nc1nc(N[C@H]2CCNC2)nc(N(C)CC(C)C)n1`, the figure is below 1000 nM; as for `CC1(C)C2CCC(CNc3nc(Nc4ccc5scnc5c4)nc(N4CCNCC4)n3)C1C2` (stereo not drawn), below 10000 nM; as for `Cc1ccc(C(N)=O)cc1Nc1nc(N[C@@H]2CCNC2)nc(OC[C@@H]2CC[C@H]3C[C@H]2C3(C)C)n1`, below 1000 nM.
As for `Cc1ccc(C(N)=O)cc1Nc1nc(N[C@@H]2CCN(C(C)CC(C)C)C2)nc(N(C)CC(C)C)n1` (stereo partly drawn), the IC50 was below 1000 nM.
In the case of `Cc1ccc(C(N)=O)cc1Nc1nc(N[C@@H]2CCCC[C@@H]2N)nc(N(C)CC(C)(C)C)n1`, the IC50 is below 1000 nM.
For `CC(CNc1nc(Nc2ccc3ncsc3c2)nc(N(C)CCCN(C)C(=O)c2ccco2)n1)c1ccccc1` (stereo not drawn), the IC50 is below 10000 nM.
As for `CONC(=O)c1ccc(C)c(Nc2nc(N(C)CC(C)(C)C)nc(N3CCCNCC3)n2)c1`, the figure is below 1000 nM; as for `CC(C)C(=O)N1CCN(c2nc(NCC(C)c3ccccc3)nc(Nc3ccc4ncsc4c3)n2)CC1` (stereo not drawn), below 10000 nM.
As for `Cc1ccc(C(N)=O)cc1Nc1nc(N[C@H]2CCN(C3CCCCC3)C2)nc(N(C)CC(C)C)n1`, the figure is below 1000 nM; as for `Cc1ccc(C(N)=O)cc1Nc1nc(N[C@H]2CCN(C(=O)c3ccccn3)C2)nc(N(C)CC(C)C)n1`, below 1000 nM.
Consider `Cc1ccc(C(N)=O)cc1Nc1nc(N[C@@H]2CCNC2)nc(N(C)C2CCCC2)n1`, for which the IC50 was below 1000 nM.
As for `Clc1nc(Nc2ccc3ncsc3c2)nc(N[C@H]2C[C@H]2c2ccccc2)n1`, the figure is below 10000 nM; as for `Cc1ccc(C(=O)Nc2ccccn2)cc1Nc1nc(N[C@H]2CCNC2)nc(N(C)CC(C)(C)C)n1`, below 1000 nM; as for `Cc1ccc(C(N)=O)cc1Nc1nc(N)nc(NC[C@@H]2CC[C@H]3C[C@@H]2C3(C)C)n1`, below 1000 nM.
As for `Cc1ccc(C(N)=O)cc1Nc1nc(N[C@H]2CCN(CCC#N)C2)nc(N(C)CC(C)(C)C)n1`, the figure is below 1000 nM.
As for `CC(=O)Nc1ccc(C)c(Nc2nc(N[C@H]3CCNC3)nc(N(C)CC(C)(C)C)n2)c1`, the figure is below 1000 nM; as for `Cc1ccc(N)cc1Nc1nc(N[C@H]2CCNC2)nc(N(C)CC(C)(C)C)n1`, below 1000 nM; as for `Cc1ccc(C(N)=O)cc1Nc1nc(NC(C)C2CCCCC2)nc(N[C@H]2CCNC2)n1` (stereo partly drawn), below 1000 nM.
Compound `Cc1ccc(C(N)=O)cc1Nc1nc(N[C@H]2CCN(Cc3cccc(C#N)c3)C2)nc(N(C)CC(C)C)n1` registered an IC50 below 1000 nM.
As for `Cc1ccc(C(N)=O)cc1Nc1nc(N[C@H]2CCCC[C@H]2O)nc(N(C)CC(C)C)n1`, the figure is below 1000 nM; as for `Cc1ccc(C(N)=O)cc1Nc1nc(N[C@H]2CCN(Cc3ccc(F)cc3)C2)nc(N(C)CC(C)C)n1`, below 1000 nM.
As for `Cc1ccc(C(=O)NC(C)C)cc1Nc1nc(N[C@H]2CCNC2)nc(N(C)CC(C)(C)C)n1`, the figure is below 1000 nM; as for `Cc1ccc(C(N)=O)cc1Nc1nc(NC2CCS(=O)(=O)C2)nc(N(C)CC(C)(C)C)n1` (stereo not drawn), below 1000 nM.
In turn, `Cc1c(Nc2nc(Cl)nc(NCC(C)c3ccccc3)n2)ccc2ncsc12` (stereo not drawn) came in with an IC50 below 10000 nM.
As for `CC1(C)C2CCC(CNc3nc(Nc4ccc5ncsc5c4)nc(N4CCC(C(N)=O)CC4)n3)C1C2` (stereo not drawn), the figure is below 10000 nM; as for `Cc1ccc(-c2nnc[nH]2)cc1Nc1nc(N[C@@H]2CCNC2)nc(N(C)CC(C)(C)C)n1`, below 1000 nM; as for `CONC(=O)c1ccc(F)c(Sc2nc(N[C@@H]3CCNC3)nc(N(C)CC(C)(C)C)n2)c1`, below 30000 nM.
The compound `Cc1ccc(C(=O)Nc2ccccn2)cc1Nc1nc(N[C@H]2CCNC2)nc(N(C)CC(C)C)n1` showed an IC50 below 1000 nM.
As for `Cc1ccc(C(N)=O)cc1Nc1nc(N[C@@H]2CCNC2)nc(-c2cccc(Cl)c2)n1`, the figure is below 1000 nM; as for `CCN1CCC[C@@H](Nc2nc(Nc3cc(C(N)=O)ccc3C)nc(N(C)CC(C)(C)C)n2)C1`, below 1000 nM; as for `C[C@H](CNc1nc(Cl)nc(Nc2ccc3ncsc3c2)n1)c1ccccc1`, below 10000 nM.
The compound `c1ccc(C2CCCN(c3nc(Nc4ccc5ncsc5c4)nc(N4CCNCC4)n3)C2)cc1` (stereo not drawn) showed an IC50 below 10000 nM.
As for `CCOC(=O)N1CCC(N(C)c2nc(Nc3cc(C(N)=O)ccc3C)nc(N(C)CC(C)C)n2)C1` (stereo not drawn), the figure is below 1000 nM.
As for `Cc1ccc(C(N)=O)cc1Nc1nc(NC[C@@H]2CC[C@H]3C[C@H]2C3(C)C)nc(N[C@H]2CCNC2)n1`, the figure is below 1000 nM; as for `Cc1ccc(C)c(CN2CC[C@H](Nc3nc(Nc4cc(C(N)=O)ccc4C)nc(N(C)CC(C)C)n3)C2)c1`, below 1000 nM.
As for `Cc1ccc2c(c1)ncn2-c1nc(NCCOC(C)C)cc(N(C)C)n1`, the figure is below 10000 nM; as for `CC(CNc1nc(Nc2ccc3ncsc3c2)nc(N(C)C)n1)c1ccc(Cl)cc1` (stereo not drawn), below 10000 nM; as for `Cc1ccc(C(N)=O)cc1Nc1nc(N[C@H]2CCN(Cc3ccc(Cl)c(Cl)c3)C2)nc(N(C)CC(C)C)n1`, below 1000 nM.
`CCNC(=O)c1ccc(C)c(Nc2nc(N[C@H]3CCNC3)nc(N(C)CC(C)C)n2)c1` showed a half-maximal inhibitory concentration (IC50) below 1000 nM.
`Cc1ccc(C(N)=O)cc1Nc1nc(NCC2CC3CCC2C3)nc(N[C@H]2CCNC2)n1` (stereo partly drawn): the IC50 was below 1000 nM.
As for `Cc1ccc(C(N)=O)cc1Nc1nc(N[C@H]2CCN(C(C)C#N)C2)nc(N(C)CC(C)C)n1` (stereo partly drawn), the figure is below 1000 nM.
As for `CN(C)c1nc(Nc2ccc3ncsc3c2)nc(NC(C)(C)Cc2ccccc2)n1`, the figure is below 10000 nM.
As for `COCCC(=O)N1CC[C@@H](Nc2nc(Nc3cc(C(N)=O)ccc3C)nc(N(C)CC(C)C)n2)C1`, the figure is below 1000 nM; as for `Cc1ccc2c(c1Nc1nc(NCC(C)(C)C)nc(N[C@H]3CCNC3)n1)CNC2=O`, below 1000 nM.
For the compound `CC(CN(C)c1nc(Nc2ccc3ncsc3c2)nc(N2CCNCC2)n1)c1ccccc1` (stereo not drawn), the IC50 is below 10000 nM.
As for `CNc1nc(NCCOC(C)C)nc(Nc2ccc3ncsc3c2)n1`, the figure is below 10000 nM.
